Values of other authors, collected in US20200020419A1, “METHODS OF ANALYZING CELLS” (Flagship Pioneering Innovations VI, LLC., priority 2018, published 2020).

| Compound | induction of transition of a mouse progenitor cell into a mouse neuron, known in the literature (mouse “progenitor” cell) | induction of transition of a MEF into a mouse progenitor cell, known in the literature (MEF) |
| --- | --- | --- |
| Cc1ccc(-c2nn(C(C)(C)C)c3ncnc(N)c23)cc1 [PP1] | known in the literature to be associated with induction of transition of a mouse “progenitor” cell into a mouse neuron | – |
| CC(C)(C)n1nc(-c2ccc(Cl)cc2)c2c(N)ncnc21 [PP2] | known in the literature to be associated with induction of transition of a mouse “progenitor” cell into a mouse neuron | – |
| CC(/C=C/C(=O)NO)=C\[C@@H](C)C(=O)c1ccc(N(C)C)cc1 [Trichostatin A] | – | known in the literature to be associated with induction of transition of a MEF into a mouse “progenitor” cell |
